Laboratory results as given in patent publication US10478440B2, “Pharmaceutical compositions for inhibiting angiogenesis comprising plant-derived natural compound” (INDUSTRY-ACADEMIC COOPERATION FOUNDATION, YONSEI UNIVERSITY, priority 2011, dated 2019).

Columns and labels:
HUVECs [1] = assay: Nicotine-induced tube formation of HUVECs; assay type: cell-based, human; conditions: nicotine 10 nM
Experimental: Serum-starved HUVECs were stimulated by nicotine (10 nM) in the presence or absence of voacangine. […] The basal level capillary tube formation (a) and invasiveness (b) of HUVECs that remained in serum-free media were normalized to 100%. Matrigel (10 mg/mL) was used to coat a 48-well plate and allowed to polymerize for 1 h at 37° C. HUVECs (6×10^4 cells) were seeded on the surface of the Matrigel, and then test compounds were added for 4-16 h at 37° C. in the presence or absence of VEGF (30 ng/mL). Morphological changes in the cells and formation of tubular structures were observed under a microscope (IX71, Olympus) and photographed at 100× magnification (DP70, Olympus).

HUVECs [2] = assay: Nicotine-induced endothelial cell invasion; assay type: cell-based, human; conditions: nicotine 10 nM
Experimental: Serum-starved HUVECs were stimulated by nicotine (10 nM) in the presence or absence of voacangine. […] The basal level capillary tube formation (a) and invasiveness (b) of HUVECs that remained in serum-free media were normalized to 100%. To examine the invasiveness of HUVECs in vitro, we used a Transwell chamber system with 8.0-μm pore polycarbonate filter inserts. Briefly, the lower side of the filter was coated with gelatin (10 μL, 1 mg/mL) and the upper side was coated with Matrigel (10 μL, 3 mg/mL). […] The chamber was incubated at 37° C. for 18 h, and then the cells were fixed with 70% methanol and stained with hematoxylin and eosin. The invasiveness of cells was measured by counting the number of whole cells in the lower side of the filter using a microscope at 100× magnification, and cells were photographed at 100× magnification.

CHANG = assay: MTT cell proliferation assay, CHANG; assay type: cell-based; conditions: normal cells
HeLa = assay: MTT cell proliferation assay, HeLa; assay type: cell-based; conditions: Homo sapiens, cancer cells
HUVECs [3] = assay: In vitro tumor cell-induced angiogenesis assay (combinated-chemoinvasion assay); assay type: cell-based, human; conditions: HepG2 in lower chamber, without VEGF
Experimental: To examine the invasive activity of […], a Transwell chamber system with 8.0-μm pore polycarbonate filter inserts was used. Briefly, the lower side of the filter was coated with gelatin (10 μL, 1 mg/mL) and the upper side was coated with Matrigel (10 μL, 3 mg/mL). Next, tumor cell HepG2 was added to the lower chamber. Test compounds were added to the lower chamber without VEGF and HUVECs (7×10^5 cells) were placed in the upper chamber of the filter. The chamber was incubated at 37° C. for 18 h, and then the cells were fixed with 70% methanol and stained with hematoxylin and eosin. Invasiveness was measured by counting the number of whole cells on the lower side of the filter using a microscope at 100× magnification, and cells were photographed at 100× magnification.

[4] = test system: chick embryo chorioallantoic membrane (CAM); assay: Chorioallantoic membrane (CAM) assay; assay type: in vivo, chicken
Experimental: The CAM assay was performed as described previously. Fertilized chicken eggs were kept in a humidified incubator at 37° C. for 3 days. Approximately 2-3 mL of egg albumin was removed with a hypodermic needle, allowing the CAM and yolk sac to drop away from the shell membrane. […] After further incubation for 2 days, 2-3 mL of Intralipose (Greencross Co, Suwon, Korea) was injected beneath the CAM and the membrane was observed under a microscope. Retinoic acid (RA) was used as a positive control.

VEGF = assay: Measurement of VEGF by ELISA; assay type: cell-based, human; conditions: HepG2 cells
Experimental: The VEGF concentration in media from voacangine-treated cells was determined using a VEGF Immunoassay kit (R&D Systems, Minneapolis, Minn.) according to the manufacturer's instructions. The results were expressed as concentration of VEGF relative to the total amount of VEGF from each well.

HUVECs [5] = assay: Capillary tube formation assay (VEGF-induced); assay type: cell-based, human; conditions: VEGF 30 ng/mL, serum-starved HUVECs
Experimental: Matrigel (10 mg/mL) was used to coat a 48-well plate and allowed to polymerize for 1 h at 37° C. HUVECs (6×10^4 cells) were seeded on the surface of the Matrigel, and then test compounds were added for 4-16 h at 37° C. in the presence or absence of VEGF (30 ng/mL). Morphological changes in the cells and formation of tubular structures were observed under a microscope (IX71, Olympus) and photographed at 100× magnification (DP70, Olympus).

HUVECs [6] = assay: MTT cell proliferation assay, HUVECs; assay type: cell-based, human
Experimental: (§1) Human umbilical vascular endothelial cells (HUVECs) were grown for 7-11 passages in EGM-2 medium supplemented with 10% FBS. HepG2 (human liver carcinoma) cells were grown in RPMI 1640 containing 10% FBS and 1% antibiotics. All cell lines were maintained at 37° C. in a humidified 5% CO2 incubator. Cell proliferation was measured using a 3-(4,5-dimethylthiazol-2-yl)-2,5-diphenyltetrazolium bromide (MTT) colorimetric assay, and cell viability was assessed using Trypan blue staining.

capsaicin contraction = conditions: literature [9]; cited from earlier work
HT1080 = assay: MTT cell proliferation assay, HT1080; assay type: cell-based; conditions: Homo sapiens, HT-1080; HT1080, cancer cells
HUVECs [7] = assay: Trypan blue cell viability; conditions: doses up to 20 μM for 3 days
HepG2 = assay: MTT cell proliferation assay, HepG2; assay type: cell-based; conditions: Homo sapiens; HepG2, cancer cells
Experimental: as §1

HUVECs [8] = assay: Chemoinvasion assay (VEGF-induced); assay type: cell-based, human; conditions: VEGF 30 ng/mL, serum-starved HUVECs
Experimental: To examine the invasiveness of HUVECs in vitro, we used a Transwell chamber system with 8.0-μm pore polycarbonate filter inserts. Briefly, the lower side of the filter was coated with gelatin (10 μL, 1 mg/mL) and the upper side was coated with Matrigel (10 μL, 3 mg/mL). Test compounds were added to the lower chamber in the presence of VEGF (30 ng/mL), and HUVECs (7×10^5 cells) were placed in the upper chamber of the filter. The chamber was incubated at 37° C. for 18 h, and then the cells were fixed with 70% methanol and stained with hematoxylin and eosin. The invasiveness of cells was measured by counting the number of whole cells in the lower side of the filter using a microscope at 100× magnification, and cells were photographed at 100× magnification.

HIF-1α = assay: Western blot of HIF-1α under hypoxic conditions; assay type: cell-based, human; conditions: HepG2 cells during hypoxia
Experimental: The cell lysates were separated by 10% SDS-PAGE, followed by transfer to PVDF membranes (Millipore, Bedford, Mass.) using standard electroblotting procedures. Blots were then blocked and immunolabeled overnight at 4° C. with primary antibodies, including anti-HIF-1α and anti-tubulin antibodies. Immunolabeling was detected by an enhanced chemiluminescence (ECL) kit (GE Healthcare, Buckinghamshire, UK) according to the manufacturer's instructions. For hypoxic conditions, cells were incubated at 5% CO2 with 1% O2 balanced with N2 in an anaerobic chamber (Forma).

CN1CCCC1c1cccnc1 (stereo not drawn) [nicotine, reference compound]
increase of angiogenesis (tube formation) activity (HUVECs [1]; serum-starved HUVECs): 2.5 fold | increase of cell invasion activity (HUVECs [2]; serum-starved HUVECs): 2.0 fold

CC[C@H]1C[C@@H]2CN3CCc4c([nH]c5ccc(OC)cc45)[C@](C(=O)OC)(C2)C13 [voacangine, 12-methoxyibogamine-18-carboxylic acid methyl ester]
IC50 (CHANG): 26 µM | IC50 (HeLa): 23 µM | tumor cell-induced invasiveness of HUVECs by hypoxia (HUVECs [3]): dose-dependently inhibited | capillary formation during CAM development ([4]; 2 and 4 μg/egg, 2 days): dose-dependently inhibited capillary formation | signs of thrombosis or hemorrhage in CAM ([4]; 2 days treatment): no apparent signs of thrombosis or hemorrhage | hypoxia-induced expression of VEGF (VEGF): inhibited the hypoxia-induced expression of VEGF | nicotine-induced angiogenesis (tube formation) (HUVECs [1]): inhibit nicotine-induced angiogenesis | VEGF-induced tube formation (HUVECs [5]): inhibited VEGF-induced tube formation in a dose-dependent manner | cell growth (HUVECs [6]; 10 μM, 3 days, MTT): inhibited cell growth | IC50 (HUVECs [6]; Homo sapiens, HUVEC, HUVECs, normal cells): 18 µM | growth inhibition on HUVECs versus other cell lines (HUVECs [6]; compared with other normal and cancer cell lines (Table 1)): greater growth inhibition effect on HUVECs than on other normal and cancer cell lines | capsaicin contraction (capsaicin contraction): inhibit capsaicin contraction in a dose-dependent manner | IC50 (HT1080): 33 µM | nicotine-induced invasion of HUVECs (HUVECs [2]): inhibit nicotine-induced angiogenesis and invasion of HUVECs in a dose-dependent manner | cytotoxicity on HUVECs (trypan blue exclusion) (HUVECs [7]): no cytotoxicity | IC50 (HepG2): 42 µM | VEGF-induced invasiveness of HUVECs (HUVECs [8]): inhibited the VEGF-induced enhanced invasiveness of HUVECs in a dose-dependent manner | expression level of HIF-1α (HIF-1α): dose-dependently reduced | synthesis of cyclin D1 and tubulin (HIF-1α; Western blot): without inhibiting the synthesis of other proteins
